Measured values reported in patent US12594267B2, “Capsid inhibitors for the treatment of HIV” (Gilead Sciences, Inc., priority 2018, dated 2026).
Where two headings read alike, the source gives them in different places.

Tests used:
[1] = Plasma PK after single oral administration in solution, rat; assay type: in vivo, Sprague-Dawley Rat
Description: (§1) An oral formulation containing a compound of Formula (Ia) in […], 20% propylene glycol, 45 PEG 300, and 30% 0.01 N HCl was prepared. The formulation was orally administered to male rat, dog, cynomolgus monkey, and rhesus monkey according to the doses shown in Table 8 below.

[2] = Plasma PK after single oral administration in solution, rhesus monkey; assay type: in vivo
Description: as §1

[3] = PK after oral administration of spray-dried dispersion (SDD) tablets in dogs; assay type: in vivo; details: beagle dogs, 300 mg fixed dose
Description: A tablet, prepared from a spray-dried dispersion of a sodium salt of the compound of Formula (Ia), was prepared in a composition shown in Table T below (with an outer film coating made of Opadry® II White 85F18422, wherein the outer film coating provides a 3% weight gain based on the uncoated tablet) and was administered orally at 300 mg fixed dose to 6 beagle dogs (Table U) and the pharmacokinetic (PK) profile was determined. […] Plasma concentrations of the compound of Formula (Ia) were maintained above the target trough concentration of 20 nM for at least 14 days (2 weeks).

[4] = tested on: WT HXB2D; assay: Cytopathic antiviral assay in MT-2 cells, wild type HXB2D; assay type: cell-based, HIV-1; details: mean ± s.d. of three experiments in triplicate
Description: (§2) The antiviral activity of the compound of Formula (a) was tested against a panel of known HIV-1 mutants resistant to HIV PIs (ATV and DRV), NRTIs (TFV and FTC), NNRTIs (RPV and EFV) or INSTIs (RAL, EVG and DTG) using a cytopathic antiviral assay in MT-2 cells. The compound of Formula (Ia) was fully active against all tested mutants resistant to PIs (Table 11), NRTIs (Table 12), NNRTIs (Table 13) or INSTIs (Table 14).

[5] = tested on: NNRTI-resistant viruses; assay: Cytopathic antiviral assay in MT-2 cells, NNRTI-resistant viruses; assay type: cell-based, HIV-1; details: for EC50 Fold-Change: Mutant/WT (HXB2D) EC50 ratio, mean ± s.d. of three experiments
Description: as §2

[6] = tested on: INSTI-resistant viruses; assay: Cytopathic antiviral assay in MT-2 cells, INSTI-resistant viruses; assay type: cell-based, HIV-1; details: for EC50 Fold-Change: Mutant/WT (HXB2D) EC50 ratio, mean ± s.d. of three experiments
Description: as §2

[7] = male, Sprague-Dawley, plasma, rat, single oral 5.0 mg/kg, solution in 5% ethanol/20% propylene glycol/45% PEG 300/30% 0.01 N HCl, mean ± SD, n=3
[8] = male, plasma, single oral 4.0 mg/kg, solution in 5% ethanol/20% propylene glycol/45% PEG 300/30% 0.01 N HCl, mean ± SD, n=3
[9] = dog, plasma, oral SDD tablet of the sodium salt (Table T composition, Opadry II White film coat), mean ± SD, n=6

Work on `CC(C)(C#Cc1ccc(-c2ccc(Cl)c3c(NS(C)(=O)=O)nn(CC(F)(F)F)c23)c([C@H](Cc2cc(F)cc(F)c2)NC(=O)Cn2nc(C(F)(F)F)c3c2C(F)(F)[C@@H]2C[C@H]32)n1)S(C)(=O)=O` [Formula (Ia), N—((S)-1-(3-(4-chloro-3-(methylsulfonamido)-1-(2,2,2-trifluoroethyl)-1H-indazol-7-yl)-6-(3-methyl-3-(methylsulfonyl)but-1-yn-1-yl)pyridin-2-yl)-2-(3,5-difluorophenyl)ethyl)-2-((3bS,4aR)-5,5-difluoro-3-(trifluoromethyl)-3b,4,4a,5-tetrahydro-1H-cyclopropa[3,4]cyclopenta[1,2-c]pyrazol-1-yl)acetamide] yielded a bioavailability ([1]; male, Sprague-Dawley, plasma, rat, single oral 5.0 mg/kg, same solution, calculated based on AUC0-72h, mean ± SD, n=3, read-out: F (oral bioavailability)) of 21.7 ± 8.9%, an AUC(0-inf) [1, 7] of 25200 ± 10200 µM·h and a Cmax [1, 7] of 336 ± 116 µM. For the same compound, the Tmax [1, 7] was 10 ± 3.5 h, the AUC(0-t) ([1]; male, Sprague-Dawley, plasma, rat, single oral 5.0 mg/kg, solution in 5% ethanol/20% propylene glycol/45% PEG 300/30% 0.01 N HCl, mean ± SD, n=3, read-out: AUC0-72h) was 13500 ± 3930 µM·h and the “F % (bioavailability), in words” value ([1]; rats, oral solution) was “moderate”. It also gave a bioavailability ([2]; male, plasma, single oral 4.0 mg/kg, same solution, calculated based on AUC0-72h, mean ± SD, n=3, read-out: F (oral bioavailability)) of 4.4 ± 1.7%, an AUC(0-inf) [2, 8] of 1130 ± 446 µM·h and a Cmax [2, 8] of 29.4 ± 7.5 µM. The Tmax [2, 8] was 18.7 ± 9.2 h, the AUC(0-t) ([2]; male, plasma, single oral 4.0 mg/kg, solution in 5% ethanol/20% propylene glycol/45% PEG 300/30% 0.01 N HCl, mean ± SD, n=3, read-out: AUC0-72h) was 972 ± 367 µM·h and the “F % (bioavailability), in words” value ([2]; oral solution) was “low”. For the same compound, the “Time plasma concentrations maintained above the target trough concentration of 20 nM” value ([3]; oral SDD tablet of the sodium salt) was “at least 14 days”, the AUC(0-inf) [3, 9] was 18.5 ± 11.1 µM·h and the Cmax [3, 9] was 0.718 ± 0.409 µM. It also gave a Tmax [3, 9] of 5.3 ± 3.3 h, an AUC(0-t) ([3]; dog, plasma, oral SDD tablet of the sodium salt (Table T composition, Opadry II White film coat), mean ± SD, n=6, read-out: AUC0-72h) of 15.8 ± 10 µM·h and a concentration at 72 h ([3]; dog, plasma, oral SDD tablet of the sodium salt (Table T composition, Opadry II White film coat), mean ± SD, n=6, read-out: C72h) of 0.0614 ± 0.03 µM. The EC50 ([4]; Human immunodeficiency virus 1, MT2, read-out: WT HXB2D EC50, MT-2 cells, INSTI-resistance panel (Table 14)) was 0.13 ± 0.03 nM, the EC50 ([4]; Human immunodeficiency virus 1, MT2, read-out: WT HXB2D EC50, MT-2 cells, NNRTI-resistance panel (Table 13)) was 0.18 ± 0.02 nM and the EC50 ([4]; MT-2 cells, PI-resistance panel (Table 11), read-out: WT HXB2D EC50) was 0.24 ± 0.14 nM. For the same compound, the “EC50 Fold-Change” value ([5]; K103N) was 0.3 ± 0.1, the “EC50 Fold-Change” value ([5]; K103N/Y181C) was 0.5 ± 0.2 and the “EC50 Fold-Change” value ([5]; L100I/K103N) was 0.5 ± 0.2. The “EC50 Fold-Change” value ([5]; Y181C) was 1.6 ± 1.0, the “EC50 Fold-Change” value ([5]; Y188L) was 0.5 ± 0.1 and the “activity against all tested mutants, in words” value ([5]; mutants resistant to NNRTIs) was “fully active”. For the same compound, the “EC50 Fold-Change” value ([6]; E92Q/N155H) was 0.9 ± 0.4, the “EC50 Fold-Change” value ([6]; E138K/Q148K) was 0.7 ± 0.3 and the “EC50 Fold-Change” value ([6]; G140S/Q148R) was 0.8 ± 0.3. The “EC50 Fold-Change” value ([6]; N155H/Q148R) was 1.3 ± 0.7, the “EC50 Fold-Change” value ([6]; R263K/M50I) was 0.9 ± 0.5 and the “EC50 Fold-Change” value ([6]; Y143R) was 0.5 ± 0.1. For the same compound, the “activity against all tested mutants, in words” value ([6]; mutants resistant to INSTIs) was “fully active”.
